Data on two compounds can be found in patent publication US20250339391A1, “METHODS FOR EFFECTIVE MANAGEMENT OF PAIN” (South Rampart Pharma, Inc., priority 2024, published 2025).

SMILES strings stand for the structures. Entries after “also recorded” stand apart in the source; their conditions may differ.

One data set concerns male CD1 mice. In words: Baker yeast-induced hyperthermia antipyresis assay. The settings on record: 15% yeast ip, drug 75 mg/kg per os. In kind it is in vivo, mouse. The protocol: Antipyresis experiments were carried out with n=60 CD-1 male mice weighing between 45-50 g. All mice were kept in a 12-h day/12-h night cycle with free access to food and water ad libitum. After habituating and acclimating the mice for a week, each mouse was briefly anesthetized for 1 min with 1% isoflurane and implanted subcutaneously a transmitter probe that records core body temperature—Implantable Programmable Temperature Transponder (IPTT-300) by Bio Medic Data Systems (BMDS), DE, USA. The mice were allowed to recover for at least one week from the surgery before any recordings were made and observed in their home cages prior to pyrogen challenge for inducing fever. Temperatures were recorded using the BMDS DAS-8027-IUS data reading system.
(15% yeast, […]) (MilliporeSigma, Billerica, MA, USA) was used to induce fever. All animals used in this assay were male CD1 mice, which were fasted overnight (15 h) before the start of the assay. Mice received either yeast in 0.9% saline (sterile) (vehicle) or just 0.9% saline as an ip injection. […] All mice that didn't show a significant change in body temperature or appeared sick post-pyrogen challenge were excluded (n=5) from subsequent drug administrations.
Drug injection/concentration: All drugs and vehicle (10% DMSO: 10% labrasol:80% PEG400) were administered by oral gavage, PO administration. […]

For a further data set, the system named is Sprague-Dawley rats. Briefly: CFA inflammatory pain / von Frey with electronic detection (eVF). Particulars: for antinociceptive activity, SRP-001 versus ApAP: 32 and 100 mg/kg, young and aged rats. In kind it is in vivo, rat. On the procedure: In this model of mechanonociception, one hind paw at a time is stimulated with an electronic von Frey (eVF) filament (noxious source) until the animal retracts the paw from the mechanical stimulus. von Frey tests were conducted in a dedicated room at the LSUHSC New Orleans Neuroscience Center of Excellence vivarium. Rats were acclimated to their environment for 2 days for 30 min/day prior to testing. To obtain eVF pressure recordings, each animal was placed in an individual plastic observation compartment on a perforated metallic grid platform, which provided access to the plantar surface of the hind paws. After acclimation to the environment for 30 min, mechanical hypersensitivity was assessed by stimulating the mid-plantar area of each hind paw with a rigid tip von Frey filament attached to the eVF meter (Ugo Basile 38450) until animals withdrew the paw from the filament. The withdrawal threshold was defined as the average force/pressure (g) required for the rat to withdraw the stimulated paw. A brisk withdrawal of the paw (often followed by a sustained retraction and/or licking) was considered a positive response, but paw withdrawals due to locomotion or weight shifting were not counted. The von Frey studies were conducted with an eVF device that electronically registers the grams of force necessary to elicit paw withdrawal in order to eliminate bias that confounded previous older versions of this test. Baseline withdrawal thresholds of both the right and left paws were recorded, and animals were assigned to different treatment groups so that each group had approximately equal withdrawal threshold averages in both paws. […] Doses at concentrations of 32 mg/kg and 100 mg/kg were tested in a cumulative dose-response manner and given at an interval of 60 min, and paw withdrawal threshold readings were measured using eVF as described above.

For a further data set, the system named is male Sprague-Dawley rats. In words: Neuropharmacological profile (modified Irwin/FOB) in Sprague-Dawley rats (GLP). In kind it is in vivo, rat. On the procedure: Any potential neuropharmacological effects of orally administered SRP-001 in rats were assessed in three groups of eight male Sprague-Dawley rats. Each was orally administered SRP-001 at a single dose of 220, 440, or 660 mg/kg. Vehicle (10% labrasol: 10% DMSO: 80% PEG400) was administered to an additional group of eight rats. The dose volume was 10 mL/kg. […] All observations were made at ±5 min for the observations through 1 h post-dose and ±15 min for the later observations. Body temperature was measured 1 h following dose administration.

The subject of a further data set is AM404. In words: LC-MS/MS quantification of AM404 production in periaqueductal gray. In kind it is in vivo. The settings on record: rat, 32 mg/kg IP, 30 min, with CFA or vehicle. The protocol: Deuterated compound D10-SRP-001 was synthesized by Olon Ricerca Bioscience (Concord, OH), and purity was determined to be >99.9% by HPLC. This was used as pure analytical standard for detection of SRP-001 using an LC-MS/MS method. Similarly, pure analytical standard of AM404 (10 ng/mL) obtained from Cayman Chemical (Ann Arbor, MI) was used to characterize the full fragmentation pattern of AM404. […] Thirty min post-injection, the animals were sacrificed (same as in the CFA/von Frey model), their brains harvested, and the midbrain periaqueductal gray (PAG) region excised. SRP-001 or AM404 were extracted from the PAG using a liquid-liquid extraction method using 1:1 MeOH:H2O for LC-MS/MS and were loaded onto a liquid chromatography-tandem mass spectrophotometer for analysis. The mass spectrophotometer was operated in multiple reaction monitoring (MRM) mode using positive ion electrospray. D10-SRP-001 was detected by monitoring the m/z transition 416→186. AM404 was detected by monitoring the m/z transition 396→287.

Consider `CCN(CC)C(=O)c1ccccc1S(=O)(=O)NCC(=O)Nc1ccc(O)cc1` [SRP-001, N,N-diethyl-2-[[2-(4-hydroxyanilino)-2-oxo-ethyl]sulfamoyl]benzamide], for which the “antipyresis, core body temperature” value in the data set on male CD1 mice is recorded as “subsequent reduction in core body temperature”. Moreover, the “antinociceptive activity, SRP-001 versus ApAP” value in the data set on Sprague-Dawley rats is given as “comparable antinociceptive activity; also recorded: more efficacious than ApAP; also recorded: comparable analgesic activity”. In addition, the “equimolar (μmol/kg) ED50 / dose-response curve relative to ApAP” value with Sprague-Dawley rats (von Frey, non-linear regression) is recorded as “shifted curves to the left; also recorded: comparable or improved ED50; also recorded: clear shift to the left”. For the same compound, the “body temperature versus vehicle” value with male Sprague-Dawley rats (660 mg/kg, 1 h post-dose) was “significantly (p≤0.05) lower; also recorded: lower body temperature”. The “neuropharmacological or clinical signs” value with male Sprague-Dawley rats (220, 440 or 660 mg/kg oral, through 24 h post-dose) is “No apparent neuropharmacological or clinical signs were observed”. Moreover, the “AM404 production in the PAG” value in the data set on AM404 (32 mg/kg) is recorded as “highest AM404 production; also recorded: produces more AM404 than ApAP”.
For the compound `CC(=O)Nc1ccc(O)cc1` [ApAP, acetaminophen], in the data set on male CD1 mice, the “antipyresis, core body temperature” value is listed as “subsequent reduction in core body temperature”. Besides, the “antinociceptive activity, SRP-001 versus ApAP” value with Sprague-Dawley rats is “comparable antinociceptive activity; also recorded: comparable analgesic activity”. Moreover, in the data set on AM404, the “AM404 production in the PAG” value is given as “diminished”.
